Results as given in ChEMBL document CHEMBL5584217, “Synthesis, biological activity evaluation and mechanism of action of novel bis-isatin derivatives as potential anti-liver cancer agents” (Bioorg Med Chem Lett, 2024).
Activity calls are given as the source filed them. No cut-off for these calls is given here.

Assays:
HuH-1 [1] = test: Antiproliferative activity against human HuH-1 cells assessed as inhibition of cell growth incubated for 48 hrs by CCK-8 method; assay type: functional, cell-based; conditions: HuH-1, 48 h
H22 = test: Antiproliferative activity against mouse H22 cells assessed as inhibition of cell growth incubated for 48 hrs by CCK-8 method; assay type: functional, cell-based; conditions: H22, 48 h
Huh-7 = test: Antiproliferative activity against human Huh-7 cells assessed as inhibition of cell growth incubated for 48 hrs by CCK-8 method; assay type: functional, cell-based; conditions: Huh-7, 48 h
[2] = Antiproliferative activity against mouse AML12 cells assessed as inhibition of cell growth incubated for 48 hrs by CCK-8 method; assay type: toxicity, cell-based
Hepa 1-6 = test: Antiproliferative activity against mouse Hepa1-6 cells assessed as inhibition of cell growth incubated for 48 hrs by CCK-8 method; assay type: functional, cell-based; conditions: Hepa1-6, 48 h
HepG2 = test: Antiproliferative activity against human HepG2 cells assessed as inhibition of cell growth incubated for 48 hrs by CCK-8 method; assay type: functional, cell-based; conditions: HepG2, 48 h
HuH-6 = test: Antiproliferative activity against human HuH-6 cells assessed as inhibition of cell growth incubated for 48 hrs by CCK-8 method; assay type: functional, cell-based; conditions: HuH-6, 48 h
MHCC97H = test: Antiproliferative activity against human MHCC97H cells assessed as inhibition of cell growth incubated for 48 hrs by CCK-8 method; assay type: functional, cell-based
HuH-1 [3] = test: Induction of autophagy in human HuH-1 cells assessed as increase in LC3BII expression by […] based analysis; assay type: functional, cell-based
HuH-1 [4] = test: Induction of autophagy in human HuH-1 cells assessed as increase in LC3BI expression by […] based analysis; assay type: functional, cell-based
HuH-1 [5] = test: Induction of autophagy in human HuH-1 cells assessed as increase in ATG5 expression by […] based analysis; assay type: functional, cell-based
HuH-1 [6] = test: Induction of autophagy in human HuH-1 cells assessed as downregulation of P62 expression by […] based analysis; assay type: functional, cell-based
HuH-1 [7] = test: Antitumor activity against human HuH-1 cells xenografted in NCG mouse model assessed as reduction in tumor cell density at 20 mg/kg, ip administered every other day for 14 days; assay type: functional, organism-based; conditions: time 14.0 day
HuH-1 [8] = test: Antitumor activity against human HuH-1 cells xenografted in NCG mouse model assessed as increase in tumor cell death at 20 mg/kg, ip administered every other day for 14 days; assay type: functional, organism-based; conditions: time 14.0 day
HuH-1 [9] = test: Antitumor activity against human HuH-1 cells xenografted in NCG mouse model assessed as increase in tumor cell death at 15 mg/kg, ip administered every other day for 14 days; assay type: functional, organism-based; conditions: time 14.0 day
HuH-1 [10] = test: Antitumor activity against human HuH-1 cells xenografted in NCG mouse model assessed as reduction in tumor cell density at 15 mg/kg, ip administered every other day for 14 days; assay type: functional, organism-based; conditions: time 14.0 day
HuH-1 [11] = test: Antitumor activity against human HuH-1 cells xenografted in NCG mouse model assessed as reduction in tumor size at 15 mg/kg, ip administered every other day for 14 days; assay type: functional, organism-based; conditions: time 14.0 day
HuH-1 [12] = test: Antitumor activity against human HuH-1 cells xenografted in NCG mouse model assessed as reduction in tumor weight at 15 mg/kg, ip administered every other day for 14 days; assay type: functional, organism-based; conditions: time 14.0 day
[13] = Toxicity in NCG mouse assessed as pathological change in heart at 15 mg/kg, ip measured after 14 days by H and E staining based analysis; assay type: organism-based; conditions: in vivo, 336 h, time 14 day
[14] = Toxicity in NCG mouse assessed as pathological change in liver at 15 mg/kg, ip measured after 14 days by H and E staining based analysis; assay type: organism-based; conditions: in vivo, 336 h, time 14 day
[15] = Toxicity in NCG mouse assessed as pathological change in spleen at 15 mg/kg, ip measured after 14 days by H and E staining based analysis; assay type: organism-based; conditions: in vivo, 336 h, time 14 day
[16] = Toxicity in NCG mouse assessed as pathological change in lung at 15 mg/kg, ip measured after 14 days by H and E staining based analysis; assay type: organism-based; conditions: in vivo, 336 h, time 14 day
[17] = Toxicity in NCG mouse assessed as pathological change in kidney at 15 mg/kg, ip measured after 14 days by H and E staining based analysis; assay type: organism-based; conditions: in vivo, 336 h, time 14 day
[18] = Toxicity in NCG mouse assessed as pathological change in tumor at 15 mg/kg, ip measured after 14 days by H and E staining based analysis; assay type: organism-based; conditions: in vivo, 336 h, time 14 day
[19] = Toxicity in NCG mouse assessed as effect on HCT level at 15 mg/kg, ip measured after 14 days; assay type: organism-based; conditions: in vivo, 336 h, time 14 day
[20] = Toxicity in NCG mouse assessed as effect on HGB level at 15 mg/kg, ip measured after 14 days; assay type: organism-based; conditions: in vivo, 336 h, time 14 day
[21] = Toxicity in NCG mouse assessed as effect on MCH level at 15 mg/kg, ip measured after 14 days; assay type: organism-based; conditions: in vivo, 336 h, time 14 day
[22] = Toxicity in NCG mouse assessed as effect on MCV level at 15 mg/kg, ip measured after 14 days; assay type: organism-based; conditions: in vivo, 336 h, time 14 day
[23] = Toxicity in NCG mouse assessed as effect on RBC level at 15 mg/kg, ip measured after 14 days; assay type: organism-based, Erythrocyte; conditions: in vivo, 336 h, time 14 day
[24] = Toxicity in NCG mouse assessed as effect on UREA level at 15 mg/kg, ip measured after 14 days; assay type: organism-based; conditions: in vivo, 336 h, time 14 day
[25] = Toxicity in NCG mouse assessed as effect on ALB level at 15 mg/kg, ip measured after 14 days; assay type: organism-based; conditions: in vivo, 336 h, time 14 day
[26] = Toxicity in NCG mouse assessed as effect on ALT level at 15 mg/kg, ip measured after 14 days; assay type: organism-based; conditions: in vivo, 336 h, time 14 day
[27] = Toxicity in NCG mouse assessed as effect on AST level at 15 mg/kg, ip measured after 14 days; assay type: organism-based; conditions: in vivo, 336 h, time 14 day
[28] = Toxicity in NCG mouse assessed as effect on LDH level at 15 mg/kg, ip measured after 14 days; assay type: organism-based; conditions: in vivo, 336 h, time 14 day

SMILES | IC50 (HuH-1 [1]) [µM] | IC50 (Huh-7) [µM] | IC50 (HepG2) [µM] | IC50 (HuH-6) [µM] | IC50 (H22) [µM] | IC50 at 48 h [2] [µM] | IC50 (Hepa 1-6) [µM] | IC50 (MHCC97H) [µM] | further results
COC(=O)[C@H](CCCCNC(=O)CN1C(=O)C(=O)c2cc(OC)ccc21)NC(=O)CN1C(=O)C(=O)c2cc(OC)ccc21 | > 100 | > 100 | > 100 | > 100 | > 100 | > 100 | > 100 | > 100 | –
CNC(=O)c1cc(Oc2ccc(NC(=O)Nc3ccc(Cl)c(C(F)(F)F)c3)cc2)ccn1 [SORAFENIB] | 9.63 | 14.7 | – | – | 10.7 | – | – | – | Activity (HuH-1 [7]): Active; Activity (HuH-1 [8]): Active
COC(=O)[C@H](CCCCNC(=O)CN1C(=O)C(=O)c2ccccc21)NC(=O)CN1C(=O)C(=O)c2ccccc21 | > 100 | > 100 | > 100 | > 100 | > 100 | > 100 | > 100 | > 100 | –

Continued, in another order:

IC50 (HuH-1 [1]) [µM] | IC50 (Huh-7) [µM] | IC50 (HepG2) [µM] | IC50 (HuH-6) [µM] | SMILES | IC50 (H22) [µM] | IC50 at 48 h [2] [µM] | IC50 (Hepa 1-6) [µM] | IC50 (MHCC97H) [µM] | further results
26.4 | 29.9 | > 100 | > 100 | COC(=O)[C@H](CCCCNC(=O)CN1C(=O)C(=O)c2cc(Cl)ccc21)NC(=O)CN1C(=O)C(=O)c2cc(Cl)ccc21 | 45.8 | > 100 | > 100 | > 100 | –
> 100 | > 100 | > 100 | > 100 | COC(=O)[C@H](CCCCNC(=O)CN1C(=O)C(=O)c2cc(F)ccc21)NC(=O)CN1C(=O)C(=O)c2cc(F)ccc21 | > 100 | > 100 | > 100 | > 100 | Activity (HuH-1 [3]): Active; Activity (HuH-1 [4]): Active; Activity (HuH-1 [5]): Active; Activity (HuH-1 [6]): Active
17.1 | 8.27 | > 100 | > 100 | COC(=O)[C@H](CCCCNC(=O)CN1C(=O)C(=O)c2cc(Br)ccc21)NC(=O)CN1C(=O)C(=O)c2cc(Br)ccc21 | 16.9 | > 100 | > 100 | > 100 | Activity (HuH-1 [9]): Active; Activity (HuH-1 [10]): Active; Activity (HuH-1 [11]): Active; Activity (HuH-1 [12]): Active; Activity [13]: Non-Toxic; Activity [14]: Non-Toxic; Activity [15]: Non-Toxic; Activity [16]: Non-Toxic; Activity [17]: Non-Toxic; Activity [18]: Non-Toxic; Activity [19]: Non-Toxic; Activity [20]: Non-Toxic; Activity [21]: Non-Toxic; Activity [22]: Non-Toxic; Activity [23]: Non-Toxic; Activity [24]: Non-Toxic; Activity [25]: Non-Toxic; Activity [26]: Non-Toxic; Activity [27]: Non-Toxic; Activity [28]: Non-Toxic
35.1 | 32.9 | > 100 | > 100 | COC(=O)[C@H](CCCCNC(=O)CN1C(=O)C(=O)c2cc(C)ccc21)NC(=O)CN1C(=O)C(=O)c2cc(C)ccc21 | > 100 | > 100 | > 100 | > 100 | –
